Earlier results on one molecule are cited in US12138350B2, “Method of producing a extruded composition” (Cubic Pharmaceuticals Ltd., priority 2015, dated 2024).

For the data set the following is noted: Ramukutty and Ramachandran 2014.

As to `CC(C)Cc1ccc(C(C)C(=O)O)cc1` (racemic) [Ibuprofen, (RS)-2-(4-(2-methylpropyl)phenyl)propanoic acid], the “Temperature up to which stable” value was “about 152 °C”.
